Drawing on ChEMBL document CHEMBL2062494, “Synthesis and biochemical evaluation of thiochromanone thiosemicarbazone analogues as inhibitors of cathepsin L” (ACS Med Chem Lett, 2012), this text covers IC50 for 36 compounds.

One assay deals with Cathepsin B (Homo sapiens, UniProt P07858). The experiment in a line: Inhibition of human liver cathepsin B using Z-R-R-AMC as substrate preincubated with compound for 5 mins measured after 20 mins by fluorescence analysis.
A further assay has as its target Procathepsin L (Homo sapiens, UniProt P07711). The assay is described as follows: Inhibition of human liver cathepsin L using Z-R-R-AMC as substrate preincubated with compound for 5 mins measured after 20 mins by fluorescence analysis.

Chain of Procathepsin L (P07711 whole entry): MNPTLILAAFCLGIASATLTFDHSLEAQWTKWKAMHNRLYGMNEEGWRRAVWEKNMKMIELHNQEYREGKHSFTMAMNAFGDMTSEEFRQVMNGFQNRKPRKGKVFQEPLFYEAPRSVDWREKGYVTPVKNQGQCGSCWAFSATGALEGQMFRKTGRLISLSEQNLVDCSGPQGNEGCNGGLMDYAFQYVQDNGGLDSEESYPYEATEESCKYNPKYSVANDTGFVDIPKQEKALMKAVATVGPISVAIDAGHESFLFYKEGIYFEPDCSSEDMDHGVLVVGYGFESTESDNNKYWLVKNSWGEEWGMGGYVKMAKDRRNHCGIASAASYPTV

With `NC(=S)N/N=C1\CCSc2ccc(Cl)cc21`, the IC50 on Cathepsin B was more than 10 µM; on Procathepsin L, 0.228 µM.

Turning to `NC(=S)N/N=C1\CCSc2c(OC(F)(F)F)cccc21`, the IC50 at Cathepsin B and at Procathepsin L was more than 10 µM in each case.

Regarding `NC(=S)N/N=C1\CCSc2ccc(F)cc21`, the IC50 is more than 10 µM on Cathepsin B and 0.741 µM at Procathepsin L.

On to `NC(=S)N/N=C1\CCSc2ccc(Br)cc21`, for which the IC50 on Cathepsin B was more than 10 µM; at Procathepsin L, 0.152 µM.

As for `NC(=S)N/N=C1\CCSc2cc(F)c(F)cc21`, the IC50 on Cathepsin B was more than 10 µM; at Procathepsin L, 0.046 µM.

Take `NC(=S)N/N=C1\CCSc2c(F)cc(F)cc21`: the values for the IC50 on Cathepsin B and on Procathepsin L were more than 10 µM and 1.5 µM, respectively.

Regarding `NC(=S)N/N=C1\CCSc2c(Br)cc(F)cc21`, the IC50 on Cathepsin B and on Procathepsin L was more than 10 µM each time.

Take `NC(=S)N/N=C1\CCSc2c(F)cc(Br)cc21`: the values for the IC50 at Cathepsin B and on Procathepsin L were more than 10 µM and 0.434 µM, respectively.

Turning to `Cc1ccc2c(c1)/C(=N/NC(N)=S)CCS2`, the IC50 is more than 10 µM on Cathepsin B and 0.214 µM on Procathepsin L.

Consider `CCc1ccc2c(c1)/C(=N/NC(N)=S)CCS2`, for which the figures for the IC50 on Cathepsin B and on Procathepsin L were more than 10 µM and 2.72 µM, respectively.

As for `CC(C)c1ccc2c(c1)/C(=N/NC(N)=S)CCS2`, the IC50 on Cathepsin B and on Procathepsin L was more than 10 µM throughout.

With `COc1ccc2c(c1)/C(=N/NC(N)=S)CCS2`, the IC50 on Cathepsin B and at Procathepsin L was more than 10 µM in each case.

As for `CSc1ccc2c(c1)/C(=N/NC(N)=S)CCS2`, the IC50 at Cathepsin B and on Procathepsin L was more than 10 µM in each case.

As for `NC(=S)N/N=C1\CCSc2ccc(C(F)(F)F)cc21`, the IC50 is more than 10 µM on Cathepsin B and 0.284 µM on Procathepsin L.

`NC(=S)N/N=C1\CCSc2ccc(OC(F)(F)F)cc21`: the IC50 on Cathepsin B is more than 10 µM; on Procathepsin L, 0.256 µM.

Turning to `NC(=S)N/N=C1\CCSc2ccc(O)cc21`, the IC50 on Cathepsin B and on Procathepsin L was more than 10 µM in each case.

For the compound `NC(=S)N/N=C1\CCSc2ccc([N+](=O)[O-])cc21`, the IC50 on Cathepsin B was more than 10 µM; at Procathepsin L it was 0.068 µM.

Take `CC(=O)Nc1ccc2c(c1)/C(=N/NC(N)=S)CCS2`: the IC50 at Cathepsin B and on Procathepsin L was more than 10 µM throughout.

In the case of `NC(=S)N/N=C1\CCSc2ccc3ccccc3c21`, the IC50 at Cathepsin B and at Procathepsin L was more than 10 µM each time.

Take `NC(=S)N/N=C1\CCS(=O)(=O)c2ccc(F)cc21`: the IC50 on Cathepsin B and at Procathepsin L was more than 10 µM throughout.

As to `NC(=S)N/N=C1\CCS(=O)(=O)c2ccc(Cl)cc21`, the IC50 at Cathepsin B and at Procathepsin L was more than 10 µM in each case.

On to `NC(=S)N/N=C1\CCS(=O)(=O)c2cc(F)c(F)cc21`, for which the IC50 was more than 10 µM at Cathepsin B and 3.65 µM at Procathepsin L.

Turning to `NC(=S)N/N=C1\CCS(=O)(=O)c2c(F)cc(F)cc21`, the IC50 on Cathepsin B and on Procathepsin L was more than 10 µM throughout.

For `NC(=S)N/N=C1\CCS(=O)(=O)c2c(Br)cc(F)cc21`, the IC50 at Cathepsin B and at Procathepsin L was more than 10 µM in each case.

In the case of `NC(=S)N/N=C1\CCS(=O)(=O)c2c(F)cc(Br)cc21`, the IC50 at Cathepsin B is more than 10 µM; on Procathepsin L, 1.12 µM.

On to `Cc1ccc2c(c1)/C(=N/NC(N)=S)CCS2(=O)=O`, for which the IC50 at Cathepsin B and on Procathepsin L was more than 10 µM throughout.

Turning to `CCc1ccc2c(c1)/C(=N/NC(N)=S)CCS2(=O)=O`, the figures for the IC50 on Cathepsin B and on Procathepsin L were more than 10 µM and 6.52 µM, respectively.

For the compound `CC(C)c1ccc2c(c1)/C(=N/NC(N)=S)CCS2(=O)=O`, the IC50 on Cathepsin B and on Procathepsin L was more than 10 µM throughout.

On to `COc1ccc2c(c1)/C(=N/NC(N)=S)CCS2(=O)=O`, for which the IC50 on Cathepsin B and on Procathepsin L was more than 10 µM in each case.

Take `NC(=S)N/N=C1\CCS(=O)(=O)c2ccc(C(F)(F)F)cc21`: the IC50 is more than 10 µM on Cathepsin B and 0.26 µM on Procathepsin L.

Regarding `NC(=S)N/N=C1\CCS(=O)(=O)c2ccc(OC(F)(F)F)cc21`, the results for the IC50 on Cathepsin B and on Procathepsin L were more than 10 µM and 3.96 µM, respectively.

As to `NC(=S)N/N=C1\CCS(=O)(=O)c2ccc([N+](=O)[O-])cc21`, the results for the IC50 on Cathepsin B and at Procathepsin L were more than 10 µM and 0.112 µM, respectively.

`CC(=O)Nc1ccc2c(c1)/C(=N/NC(N)=S)CCS2(=O)=O`: the IC50 at Cathepsin B and on Procathepsin L was more than 10 µM each time.

As for `NC(=S)N/N=C1\CCS(=O)(=O)c2ccc(Br)cc21`, the figures for the IC50 on Cathepsin B and on Procathepsin L were more than 10 µM and 0.574 µM, respectively.

Regarding `NC(=S)NN=C1CCSc2ccc(N)cc21` (mixture of isomers), the IC50 at Cathepsin B and at Procathepsin L was more than 10 µM throughout.

Take `NC(=S)NN=C1CCS(=O)(=O)c2ccc(O)cc21` (mixture of isomers): the IC50 on Cathepsin B and on Procathepsin L was more than 10 µM each time.
